The numbers were not newly measured in patent US8778989B2, “Cosmetic composition comprising a lipid fraction from vegetable source and anticrystaling agent” (Natura Cosmeticos S.A., priority 2004, dated 2014), which cites them from elsewhere.

Like-named read-outs stand apart in the source and are kept apart here.

`CCCCC/C=C\C/C=C\CCCCCCCC(=O)O` [Linoleic, 9,12-linoleic acid]: the “Relative Velocity of Oxidation of Fatty Acids” value (“Relative Velocity” for short) (T = 20° C.) was 48, the “Relative Velocity” value (T = 37° C.) is on record as 42 and the “Relative Velocity” value (T = 100° C.) is recorded as 64. For the same compound, the “oxidation rate relative to oleic acid” value (as fast as oleic acid) was 15 times.

For the compound `CCCCCCCC/C=C\CCCCCCCC(=O)O` [Oleic, oleic acid], the “Relative Velocity” value runs as follows: (T = 20° C.) 4; (T = 100° C.) 6.

Turning to `CCCCCCCCCCCCCCCCCC(=O)O` [Stearic], the “Relative Velocity” value (T = 100° C.) was 0.6.
